From PubChem BioAssay (NCI)
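All cell lines were grown in 96-well plates and treated with compound for 48 hours. GI50 is the concentration that inhibits growth by half. TGI: total growth inhibition.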

How the values were obtained:
Experiment in all cases: DTP human tumour cell line panel, 48 h
M14 melanoma = test system: M14 melanoma
HOP-62 NSCLC = test system: HOP-62 NSCLC
HOP-92 NSCLC = test system: HOP-92 NSCLC
A498 renal = test system: A498 renal
NCI-H23 lung = test system: NCI-H23 lung
SW-620 colon = test system: SW-620 colon
RPMI-8226 leukemia = test system: RPMI-8226 leukemia
T-47D breast = test system: T-47D breast
MALME-3M melanoma = test system: MALME-3M melanoma
NCI-H522 lung = test system: NCI-H522 lung
OVCAR-4 ovarian = test system: OVCAR-4 ovarian
A549 NSCLC = test system: A549 NSCLC
CAKI-1 renal = test system: CAKI-1 renal
TK-10 renal = test system: TK-10 renal
OVCAR-5 ovarian = test system: OVCAR-5 ovarian
UO-31 renal = test system: UO-31 renal
MDA-MB-435 = test system: MDA-MB-435
LOX IMVI melanoma = test system: LOX IMVI melanoma
KM12 colon = test system: KM12 colon
UACC-257 melanoma = test system: UACC-257 melanoma
HCT-116 colon = test system: HCT-116 colon
SNB-75 CNS = test system: SNB-75 CNS
COLO 205 colon = test system: COLO 205 colon
RXF 393 renal = test system: RXF 393 renal
SF-539 CNS = test system: SF-539 CNS
PC-3 prostate = test system: PC-3 prostate
OVCAR-8 ovarian = test system: OVCAR-8 ovarian
U251 CNS = test system: U251 CNS
SK-MEL-5 melanoma = test system: SK-MEL-5 melanoma
MCF7 breast = test system: MCF7 breast
SK-MEL-28 melanoma = test system: SK-MEL-28 melanoma
SR leukemia = test system: SR leukemia
SN12C renal = test system: SN12C renal
SNB-19 CNS = test system: SNB-19 CNS
MDA-MB-231 breast = test system: MDA-MB-231 breast
DU-145 prostate = test system: DU-145 prostate
K-562 leukemia = test system: K-562 leukemia
NCI-H226 lung = test system: NCI-H226 lung
HS 578T breast = test system: HS 578T breast
HCC-2998 colon = test system: HCC-2998 colon
ACHN renal = test system: ACHN renal
UACC-62 melanoma = test system: UACC-62 melanoma
SF-295 CNS = test system: SF-295 CNS
CCRF-CEM leukemia = test system: CCRF-CEM leukemia
SF-268 CNS = test system: SF-268 CNS
NCI/ADR-RES ovarian = test system: NCI/ADR-RES ovarian
786-0 renal = test system: 786-0 renal
SK-OV-3 ovarian = test system: SK-OV-3 ovarian
MOLT-4 leukemia = test system: MOLT-4 leukemia
OVCAR-3 ovarian = test system: OVCAR-3 ovarian
SK-MEL-2 melanoma = test system: SK-MEL-2 melanoma
HT29 colon = test system: HT29 colon
HCT-15 colon = test system: HCT-15 colon
BT-549 breast = test system: BT-549 breast
NCI-H460 lung = test system: NCI-H460 lung
HL-60(TB) leukemia = test system: HL-60(TB) leukemia
IGROV1 ovarian = test system: IGROV1 ovarian

`O=C1/C(=C\c2ccc(Br)cc2)CN(C(=O)c2ccccc2F)C/C1=C\c1ccc(Br)cc1` was tested, and the GI50 (M14 melanoma) was 1790 nM, the TGI (M14 melanoma) was 3780 nM and the GI50 (HOP-62 NSCLC) was 1830 nM. The TGI (HOP-62 NSCLC) was 3820 nM, the GI50 (HOP-92 NSCLC) was 2210 nM and the TGI (HOP-92 NSCLC) was 6760 nM. For the same molecule, the GI50 (A498 renal) was 2870 nM, the TGI (A498 renal) was 10400 nM and the GI50 (NCI-H23 lung) was 2490 nM. The TGI (NCI-H23 lung) was 6390 nM, the GI50 (SW-620 colon) was 913 nM and the TGI (SW-620 colon) was 2950 nM. It also gave a GI50 (RPMI-8226 leukemia) of 119 nM, a TGI (RPMI-8226 leukemia) of 903 nM and a GI50 (T-47D breast) of 3470 nM. It also gave a TGI (T-47D breast) of 24100 nM, a GI50 (MALME-3M melanoma) of 2610 nM and a TGI (MALME-3M melanoma) of 7910 nM. For the same molecule, the GI50 (NCI-H522 lung) was 2150 nM, the TGI (NCI-H522 lung) was 4940 nM and the GI50 (OVCAR-4 ovarian) was 1960 nM. For the same molecule, the TGI (OVCAR-4 ovarian) was 5010 nM, the GI50 (A549 NSCLC) was 2210 nM and the TGI (A549 NSCLC) was 6160 nM. It also gave a GI50 (CAKI-1 renal) of 3050 nM, a TGI (CAKI-1 renal) of 20000 nM and a GI50 (TK-10 renal) of 2840 nM. It also gave a TGI (TK-10 renal) of 7460 nM, a GI50 (OVCAR-5 ovarian) of 2450 nM and a TGI (OVCAR-5 ovarian) of 7060 nM. It also gave a GI50 (UO-31 renal) of 1530 nM, a TGI (UO-31 renal) of 3160 nM and a GI50 (MDA-MB-435) of 1100 nM. For the same molecule, the TGI (MDA-MB-435) was 3330 nM, the GI50 (LOX IMVI melanoma) was 334 nM and the TGI (LOX IMVI melanoma) was 1010 nM. The GI50 (KM12 colon) was 646 nM, the TGI (KM12 colon) was 2060 nM and the GI50 (UACC-257 melanoma) was 2350 nM. It also gave a TGI (UACC-257 melanoma) of 6590 nM, a GI50 (HCT-116 colon) of 202 nM and a TGI (HCT-116 colon) of 417 nM. The GI50 (SNB-75 CNS) was 2030 nM, the TGI (SNB-75 CNS) was 7440 nM and the GI50 (COLO 205 colon) was 1910 nM. The TGI (COLO 205 colon) was 3820 nM, the GI50 (RXF 393 renal) was 1600 nM and the TGI (RXF 393 renal) was 3080 nM. It also gave a GI50 (SF-539 CNS) of 1750 nM, a TGI (SF-539 CNS) of 3220 nM and a GI50 (PC-3 prostate) of 1730 nM. For the same molecule, the TGI (PC-3 prostate) was 4210 nM, the GI50 (OVCAR-8 ovarian) was 2840 nM and the TGI (OVCAR-8 ovarian) was 15700 nM. It also gave a GI50 (U251 CNS) of 1330 nM, a TGI (U251 CNS) of 2690 nM and a GI50 (SK-MEL-5 melanoma) of 1930 nM. It also gave a TGI (SK-MEL-5 melanoma) of 4040 nM, a GI50 (MCF7 breast) of 308 nM and a TGI (MCF7 breast) of 1380 nM. For the same molecule, the GI50 (SK-MEL-28 melanoma) was 2290 nM, the TGI (SK-MEL-28 melanoma) was 5650 nM and the GI50 (SR leukemia) was 339 nM. The TGI (SR leukemia) was 3200 nM, the GI50 (SN12C renal) was 1980 nM and the TGI (SN12C renal) was 4920 nM. The GI50 (SNB-19 CNS) was 2060 nM, the TGI (SNB-19 CNS) was 6650 nM and the GI50 (MDA-MB-231 breast) was 2730 nM. It also gave a TGI (MDA-MB-231 breast) of 7890 nM, a GI50 (DU-145 prostate) of 3790 nM and a TGI (DU-145 prostate) of 16800 nM. For the same molecule, the GI50 (K-562 leukemia) was 1120 nM, the TGI (K-562 leukemia) was over 25100 nM and the GI50 (NCI-H226 lung) was 5070 nM. For the same molecule, the TGI (NCI-H226 lung) was 13600 nM, the GI50 (HS 578T breast) was 2150 nM and the TGI (HS 578T breast) was 6760 nM. The GI50 (HCC-2998 colon) was 1650 nM, the TGI (HCC-2998 colon) was 3160 nM and the GI50 (ACHN renal) was 1950 nM. It also gave a TGI (ACHN renal) of 3930 nM, a GI50 (UACC-62 melanoma) of 1760 nM and a TGI (UACC-62 melanoma) of 4030 nM. For the same molecule, the GI50 (SF-295 CNS) was 2180 nM, the TGI (SF-295 CNS) was 5640 nM and the GI50 (CCRF-CEM leukemia) was 854 nM. The TGI (CCRF-CEM leukemia) was over 26500 nM, the GI50 (SF-268 CNS) was 2810 nM and the TGI (SF-268 CNS) was 8830 nM. The GI50 (NCI/ADR-RES ovarian) was 2900 nM, the TGI (NCI/ADR-RES ovarian) was 17700 nM and the GI50 (786-0 renal) was 1690 nM. It also gave a TGI (786-0 renal) of 3130 nM, a GI50 (SK-OV-3 ovarian) of 2430 nM and a TGI (SK-OV-3 ovarian) of 5710 nM. The GI50 (MOLT-4 leukemia) was 2830 nM, the TGI (MOLT-4 leukemia) was over 29500 nM and the GI50 (OVCAR-3 ovarian) was 1910 nM. The TGI (OVCAR-3 ovarian) was 3520 nM, the GI50 (SK-MEL-2 melanoma) was 4770 nM and the TGI (SK-MEL-2 melanoma) was 17500 nM. For the same molecule, the GI50 (HT29 colon) was 610 nM, the TGI (HT29 colon) was 2170 nM and the GI50 (HCT-15 colon) was 1910 nM. The TGI (HCT-15 colon) was 6650 nM, the GI50 (BT-549 breast) was 1820 nM and the TGI (BT-549 breast) was 3560 nM. The GI50 (NCI-H460 lung) was 3100 nM, the TGI (NCI-H460 lung) was 11600 nM and the GI50 (HL-60(TB) leukemia) was 1740 nM. For the same molecule, the TGI (HL-60(TB) leukemia) was 5290 nM, the GI50 (IGROV1 ovarian) was 2290 nM and the TGI (IGROV1 ovarian) was 4890 nM.
